Source: patent US20230416299A1, “COMPOUND AND METHOD FOR THE TREATMENT AND DIAGNOSIS OF NEURODEGENERATIVE CONDITIONS” (Swansea University, priority 2013, published 2023)

How the values were obtained:
Lxrα = target: T1, Lxrα (Homo sapiens, UniProt Q13133); assay: Lxr-responsive luciferase reporter assay (Lxre + Lxrα) in SN4741 neural cells; assay type: cell-based, mouse; conditions: for Lxrα activation, luciferase activity: 10 μM, 24 h
T1 construct: expressed in transfected cells; host or cells: SN4741 mouse neuronal cell line
T1 sequence (Q13133 1-447): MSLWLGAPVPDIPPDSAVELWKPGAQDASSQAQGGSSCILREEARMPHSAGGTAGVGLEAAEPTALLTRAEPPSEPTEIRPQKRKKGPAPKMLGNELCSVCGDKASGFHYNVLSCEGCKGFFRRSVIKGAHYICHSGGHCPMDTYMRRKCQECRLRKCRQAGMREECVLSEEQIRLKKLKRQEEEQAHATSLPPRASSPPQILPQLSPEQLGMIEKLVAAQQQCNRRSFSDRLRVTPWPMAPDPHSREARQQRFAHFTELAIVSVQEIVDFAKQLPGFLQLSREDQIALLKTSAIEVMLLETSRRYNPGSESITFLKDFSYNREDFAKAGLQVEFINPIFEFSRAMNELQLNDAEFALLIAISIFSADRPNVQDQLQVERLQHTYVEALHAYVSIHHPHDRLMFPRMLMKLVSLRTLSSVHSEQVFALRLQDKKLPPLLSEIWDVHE
Text: (§1) Luciferase Reporter Assay.

Lxrβ = target: T2, Lxrβ (Homo sapiens, UniProt P55055); assay: Lxr-responsive luciferase reporter assay (Lxre + Lxrβ) in SN4741 neural cells; assay type: cell-based, mouse; conditions: SN4741 cells, 10 μM, 24 h
T2 construct: expressed in transfected cells; host or cells: SN4741 mouse neuronal cell line
T2 sequence (P55055 1-460): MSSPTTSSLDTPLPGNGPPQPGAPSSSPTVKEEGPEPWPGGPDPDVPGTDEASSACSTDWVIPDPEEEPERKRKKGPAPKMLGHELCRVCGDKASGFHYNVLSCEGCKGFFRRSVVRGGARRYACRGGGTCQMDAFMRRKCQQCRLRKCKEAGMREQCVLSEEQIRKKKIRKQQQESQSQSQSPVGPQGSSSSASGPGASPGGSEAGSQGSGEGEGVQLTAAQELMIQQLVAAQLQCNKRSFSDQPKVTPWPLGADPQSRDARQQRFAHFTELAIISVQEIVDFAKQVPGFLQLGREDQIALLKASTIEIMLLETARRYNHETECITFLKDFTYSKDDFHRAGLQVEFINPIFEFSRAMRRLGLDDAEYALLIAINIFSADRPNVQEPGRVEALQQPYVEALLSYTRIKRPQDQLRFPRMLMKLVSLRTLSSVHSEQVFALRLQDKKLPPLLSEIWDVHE
Text: as §1

[1] = tested on: mouse E11.5 brain primary cultures; assay: Mouse E11.5 brain primary cultures (Islet1+, active caspase 3+, BrdU, Nkx6.1 counts); assay type: cell-based; conditions: for Number of Islet1+ cells: wild type cultures, 3 DIV
Protocol: Primary Brain Cultures. Brains from E11.5 mice were manually dissected, plated on poly-D-lysine (150,000 cells/cm2) and grown in serum-free N2 media consisting of 1:1 mixture of F12 and DMEM with 10 ng/mL insulin, 100 μg/mL apo-transferrin, 100 μM putrescine, 20 nM progesterone, 30 nM selenium, 6 mg/mL glucose, and 1 mg/mL BSA. Cells were treated for 3 days in vitro (DIV) with the compounds of interest, fixed with 4% PFA and processed for staining using appropriate antibodies.
For BrdU analysis, cells were treated with BrdU one hour after plating and media was replaced with fresh medium after 16 h. After a further 2 days in culture, cells were treated for 30 min with 2N HCl and then immunocytochemistry was performed to evaluate the number of double BrdU+;Islet1+ cells (a measure of motor neuron neurogenesis). Hoechst staining was performed by permeabilizing cells with a 0.3% Triton-X 100/PBS solution for 5 min followed by incubation with Hoechst 33258 (Sigma) for 10 min.
Antibodies and Detection Procedures. Cells were fixed in 4% PFA, washed in PBS and blocked in 5% normal goat serum/PBS for 1 h at room temperature. Primary antibodies were diluted in PBS (pH 7.4), 0.3% Triton X-100, 1% BSA and incubations were carried out overnight at +4° C. or at room temperature for 2 h. The antibodies used were anti-: BrdU (1:400; Abeam), Islet-1 (1:100; Developmental Studies Hybridoma Bank), cleaved caspase-3 (Asp175) (1:100; Cell Signaling Technology), tyrosine hydroxylase (TH;1:1000; Pel-Freeze) GABA (1:1,000; Sigma), Brn3a (1:250; Millipore), Nkx6.1 (1:200; Novus Biologicals), choline acetyltransferase (ChAT; 1:500; Millipore) and appropriate secondary antibodies (Jackson ImmunoResearch or Alexa). Cells positive for the corresponding marker were counted directly at the microscope at a magnification of 20 x. Cells were counted in every well, in eight consecutive fields (going from one side of the well to the other, passing through the center), in three different wells per experiment and in three different experiments per condition. Random pictures of the wells were taken for every condition to document the result, and representative pictures were subsequently selected to represent the quantitative data. Photos were acquired with a Zeiss Axioplan microscope and a Hamamatsu camera C4742-95 using the Openlab software.

[2] = tested on: Islet-1:GFP transgenic zebrafish embryos; assay type: in vivo; conditions: 10 μM
Protocol: Quantitative PCR. Total RNA was extracted from SN4741 cells and zebrafish treated with the compounds of interest using the RNeasy Mini Kit (Qiagen), 1 μg was treated with RQ1 RNase-free DNase (Promega) and reverse transcribed using Superscript II Reverse Transcriptase (Invitrogen) and random primers (Invitrogen) (RT+ reaction). Parallel reactions without reverse transcriptase enzyme were done as a control (RT− reaction), and Sybergreen real-time quantitative PCR assays were performed. Expression levels were obtained by normalization with the value of the housekeeping gene encoding actin obtained for every sample in parallel assays.
Zebrafish Strain and Mainrenance Zebrafish were raised on a 14/10 h day/night cycle and were kept at 28.5° C. Islet-1:GFP transgenic embryos were obtained via natural spawning and staged in hours or days post fertilization (hpf and dpf) according to Kimmel et al). Embryos older than 24 hpf were treated with 0.03% phenylthiourea (PTU) to inhibit pigmentation. MO injections were performed using splice site specific zebrafish 1xr MO. MO injected embryos were immediately dechorionated and transferred to a 96 well plate and exposed to dimethyl sulfoxide (DMSO) treated or ligand treated medium.
Compound Exposure. Islet-1:GFP embryos were collected by natural mating and immediately (at 1 cell stage) dechorionated and transferred to a 96 well plate. Each of the compounds tested were obtained as 10 mM stock and diluted in embryo medium to a final concentration of 10 μM, and 200 μL was added to each well. DMSO or propan-2-ol treated embryo medium was taken as control. Ligand solutions were replaced every 12 h with fresh ligand solution prepared in PTU treated embryo medium. Embryos were collected at 48 hpf, fixed for 4 h at room temperature with 4% paraformaldehyde and then washed and kept in PBST. Immunocytochemistry was performed using an anti-GFP antibody and fluorescence was viewed and photographed using a Zeiss Axioplan compound microscope and a Zeiss Axiocam digital camera.

Row | Structure (SMILES) | Lxrα activation, luciferase activity (Lxrα) | Lxrβ activation, luciferase activity (Lxrβ) | other results
1 | CC(C)CCC[C@@H](C)[C@H]1CC[C@H]2[C@@H]3[C@H](O)CC4=CC(=O)CC[C@]4(C)[C@H]3CC[C@]12C [7α-HCO, 7α-Hydroxycholest-4-en-3-one] | None of these compounds showed significant activity | – | –
2 | CC(CO)CCC[C@@H](C)[C@H]1CC[C@H]2[C@@H]3[C@H](O)CC4=CC(=O)CC[C@]4(C)[C@H]3CC[C@]12C (stereo partly drawn) [7α,26-diHCO, 7α,26-dihydroxycholest-4-en-3-one] | none of which was found to show significant activity | none of which was found to show significant activity | –
3 | CC(C)CC[C@@H](O)[C@@H](C)[C@H]1CC[C@H]2[C@@H]3CC=C4C[C@@H](O)CC[C@]4(C)[C@H]3CC[C@]12C [22R-HC, 22R-hydroxycholesterol, reference compound] | – | – | Number of Islet1+ cells [1]: does not show an effect towards Islet1+ cells; Lxr luciferase activity with the Lxr antagonist GGPP (Lxrα; metabolite 10 μM + GGPP 10 μM): similarly blocked
4 | CC(C)CCC[C@@H](C)[C@H]1CC[C@H]2[C@@H]3CC[C@H]4CC(=O)CC[C@]4(C)[C@H]3CC[C@]12C [5α-cholestan-3-one] | None of these compounds showed significant activity | – | –
5 | C[C@@H](CO)CCC[C@@H](C)[C@H]1CC[C@H]2[C@@H]3CC=C4C[C@@H](O)CC[C@]4(C)[C@H]3CC[C@]12C [26-HC, cholest-(25R)-5-ene-3β,26-diol] | no a significant effect | no a significant effect | Number of Islet1+ cells [1]: no effect on the number of Islet1+ cells
6 | CC(C)CCC[C@@H](C)[C@H]1CC[C@H]2[C@@H]3[C@H](O)C=C4C[C@@H](O)CC[C@]4(C)[C@H]3CC[C@]12C [7α-HC, Cholest-5-ene-3β,7α-diol] | None of these compounds showed significant activity | – | –
7 | CC(C)CCC[C@@H](C)[C@H]1CC[C@H]2[C@@H]3CC[C@H]4C[C@@H](O)CC[C@]4(C)[C@H]3CC[C@]12C [5α-cholestan-3β-ol] | None of these compounds showed significant activity | – | –
8 | CC(C)CCC[C@@H](C)[C@H]1CC[C@H]2[C@@H]3CCC4=CC(=O)CC[C@]4(C)[C@H]3CC[C@]12C [cholest-4-en-3-one] | None of these compounds showed significant activity | – | –
9 | CC(CO)CCC[C@@H](C)[C@H]1CC[C@H]2[C@@H]3[C@H](O)C=C4C[C@@H](O)CC[C@]4(C)[C@H]3CC[C@]12C (stereo partly drawn) [7α,26-diHC, cholest-5-ene-3β,7α,26-triol] | none of which was found to show significant activity | none of which was found to show significant activity | –
10 | CC(C)[C@@H](O)CC[C@@H](C)[C@H]1CC[C@H]2[C@@H]3CC=C4C[C@@H](O)CC[C@]4(C)[C@H]3CC[C@]12C [24S-HC, Cholest-5-ene-3β,24S-diol] | activate Lxr | activate Lxr | –
11 | CC(C)CCC[C@@H](C)[C@H]1CC[C@H]2[C@@H]3[C@@H](O)C=C4C[C@@H](O)CC[C@]4(C)[C@H]3CC[C@]12C [7β-HC, Cholest-5-ene-3β,7β-diol] | None of these compounds showed significant activity | – | –
12 | CC(C)CCC[C@@H](C)[C@H]1CC[C@H]2[C@@H]3[C@H](O)CC4=CC(=O)CC[C@]4(C)[C@H]3C[C@H](O)[C@]12C [7α,12α-diHCO, 7α,12α-Dihydroxycholest-4-en-3-one] | None of these compounds showed significant activity | – | –
13 | CC(C)CCC[C@@H](C)[C@H]1CC[C@H]2[C@@H]3C=CC4=CC(=O)CC[C@]4(C)[C@H]3CC[C@]12C [cholesta-4,6-dien-3-one] | None of these compounds showed significant activity | – | –
14 | CC(CCC[C@@H](C)[C@H]1CC[C@H]2[C@@H]3C(=O)C=C4C[C@@H](O)CC[C@]4(C)[C@H]3CC[C@]12C)C(=O)O (stereo partly drawn) [3βH, 7O-CA, 3β-hydroxy-7-oxocholest-5-en-26-oic acid] | have the ability to activate both Lxrs | have the ability to activate both Lxrs | Number of other midbrain neurons (TH+ dopamine, GABAergic, red nucleus) [1]: did not affect the number of other midbrain neurons; Number of Islet1+ cells [1]: increased the number of Islet1+ oculomotor cells in the cultures; Effect on Islet1+ cells with Lxr antagonist GGPP ([1]; wt cultures, GGPP 10 μM): blocked by the Lxr antagonist GGPP; Number of active caspase-3+ cells ([1]; wt cultures, 10 μM 3β,7α-diHCA, 3βH,7O-CA, 25-HC, low concentrations of 3β,7β-diHCA, 3β-HCA): did not affect the number of active caspase-3+ cells; Islet-1 mRNA and protein level (qPCR, western blot) [2]: increase in the level of Islet-1 mRNA and protein; abca1 mRNA expression in vivo [2]: enhanced expression of abca1; Islet-GFP expression in cranial nerves ([2]; 48 hpf): increased Islet-GFP expression; Number of Islet1+ cells in cranial nerves (III, IV, V, VII, X) ([2]; 48 hpf): no significant effect on the number of Islet1+ cells; Islet-GFP levels after lxr morpholino (MO) injection ([2]; lxr MO vs control scrambled MO): abolished the in vivo increase in Islet-GFP levels
15 | CC(CCC[C@@H](C)[C@H]1CC[C@H]2[C@@H]3[C@H](O)CC4=CC(=O)CC[C@]4(C)[C@H]3CC[C@]12C)C(=O)O (stereo partly drawn) [7αH,3O-CA, 7α-hydroxy-3-oxocholest-4-en-26-oic acid] | none of which was found to show significant activity | none of which was found to show significant activity | abca1 mRNA expression in vivo [2]: not; Islet-GFP expression in cranial nerves ([2]; 48 hpf): failed to regulate Islet-GFP expression
16 | CC(CCC[C@@H](C)[C@H]1CC[C@H]2[C@@H]3[C@@H](O)CC4=CC(=O)CC[C@]4(C)[C@H]3CC[C@]12C)C(=O)O (stereo partly drawn) [7βH,3O-CA, 7β-hydroxy-3-oxocholest-4-en-26-oic acid] | none of which was found to show significant activity | none of which was found to show significant activity | –
